Results on five molecules are retold here after the NIST ThermoML archive (doi:10.1021/je201053v).

Molecules are shown by their SMILES. Numbers after ± are expanded uncertainties.

The conditions of the data set: Liquid; for mass density: 293.15 K, 101.33 kPa, Vibrating tube method.

For the molecule `Cc1ccccc1C` [1,2-dimethylbenzene], the mass density came to 879.68 ± 0.93 kg/m3. Also, for the setting “417.58 K”, the “vapor or sublimation pressure” value is reported as 101.33 ± 1.9 kPa.

For `CCc1ccccc1` [ethylbenzene], the mass density was 866.54 ± 0.58 kg/m3. Further, the “vapor or sublimation pressure” value (409.27 K) was determined as 101.33 ± 1.3 kPa.

As to `Cc1ccc(C)cc1` [1,4-dimethylbenzene], the mass density amounted to 861.21 ± 0.91 kg/m3. For the same molecule, the “vapor or sublimation pressure” value (411.51 K) is reported as 101.33 ± 1.9 kPa.

With `Cc1cccc(C)c1` [1,3-dimethylbenzene], the mass density is given as 864.11 ± 0.91 kg/m3. Further, for the setting “412.27 K”, the “vapor or sublimation pressure” value is 101.33 ± 1.4 kPa.

As to `CCCCO` [butan-1-ol], the mass density is given as 809.5 ± 0.24 kg/m3. In addition, the “vapor or sublimation pressure” value (390.85 K) amounted to 101.33 ± 1.3 kPa.
